Patent publication US20230117034A1, “PYRAZOLOTRIAZINES” (Bayer Aktiengesellschaft, priority 2019, published 2023)

What was measured:
[1] = molecular target: T1, CDK2/CycE (Homo sapiens, UniProt P24941); test: CDK2/CycE kinase assay (TR-FRET, 2 mM ATP); format: biochemical; conditions: 2 mM ATP (high ATP); median; read-out: CDK2/CyclinE, 2 mM ATP (high ATP), IC50 (median)
T1 construct: purchased ProQinase GmbH (Freiburg, Germany); host or cells: insect cells (Sf9)
Summary of the method: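 GST-tagged human CDK2 and CycE from Sf9 cells, about 10 ng/ml, pre-incubated 15 min at 22 °C with compound in Tris/HCl pH 8.0 buffer. Reaction with 2 mM ATP and 0.75 µM biotinylated peptide for 25 min at 22 °C. Phospho-RB antibody TR-FRET (665/620 nm ratio) read after 1 h; data normalised to no-inhibitor and no-enzyme controls.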

[2] = test system: CAL-120, human breast adenocarcinoma cells; test: Proliferation assay CAL-120 (crystal violet, 4 days); format: cell-based; conditions: Homo sapiens, CAL-120, 96 h, CAL-120 cells, median, read-out: Prolif-CAL-120, IC50-[mol/l] (median)
Summary of the method: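 CAL-120 or MDA-MB-231 cells grown 24 h, then exposed 4 days to compound (0.01–10 micromol/L, 0.1% DMSO). Crystal violet staining, absorbance at 595 nm, normalised to a zero-point plate (0%) and untreated cells (100%); IC50 by 4-parameter fit.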

[3] = molecular target: T2, CDK12 (nuclear staining in CAL-120 cells) (Homo sapiens, UniProt Q9NYV4); test: CDK12 nuclear protein level: immunofluorescence/high content analysis (CAL-120); format: cell-based; conditions: for DC50: CAL-120 cells, 24 h, immunofluorescence, 50% reduction of nuclear CDK12 staining intensity, median, read-out: CDK12 degradation IF, DC50- [mol/l] (median); for (IC50 CDK12 high ATP) to (Degradation DC50 CDK12) ratio: ratio of IC50 CDK12 high ATP kinase assay to DC50 CDK12 degradation (IF, CAL-120)
T2 construct: endogenous in cells; host or cells: CAL-120 human breast cancer cells (DSMZ ACC 459)
T2 sequence (Q9NYV4 whole entry): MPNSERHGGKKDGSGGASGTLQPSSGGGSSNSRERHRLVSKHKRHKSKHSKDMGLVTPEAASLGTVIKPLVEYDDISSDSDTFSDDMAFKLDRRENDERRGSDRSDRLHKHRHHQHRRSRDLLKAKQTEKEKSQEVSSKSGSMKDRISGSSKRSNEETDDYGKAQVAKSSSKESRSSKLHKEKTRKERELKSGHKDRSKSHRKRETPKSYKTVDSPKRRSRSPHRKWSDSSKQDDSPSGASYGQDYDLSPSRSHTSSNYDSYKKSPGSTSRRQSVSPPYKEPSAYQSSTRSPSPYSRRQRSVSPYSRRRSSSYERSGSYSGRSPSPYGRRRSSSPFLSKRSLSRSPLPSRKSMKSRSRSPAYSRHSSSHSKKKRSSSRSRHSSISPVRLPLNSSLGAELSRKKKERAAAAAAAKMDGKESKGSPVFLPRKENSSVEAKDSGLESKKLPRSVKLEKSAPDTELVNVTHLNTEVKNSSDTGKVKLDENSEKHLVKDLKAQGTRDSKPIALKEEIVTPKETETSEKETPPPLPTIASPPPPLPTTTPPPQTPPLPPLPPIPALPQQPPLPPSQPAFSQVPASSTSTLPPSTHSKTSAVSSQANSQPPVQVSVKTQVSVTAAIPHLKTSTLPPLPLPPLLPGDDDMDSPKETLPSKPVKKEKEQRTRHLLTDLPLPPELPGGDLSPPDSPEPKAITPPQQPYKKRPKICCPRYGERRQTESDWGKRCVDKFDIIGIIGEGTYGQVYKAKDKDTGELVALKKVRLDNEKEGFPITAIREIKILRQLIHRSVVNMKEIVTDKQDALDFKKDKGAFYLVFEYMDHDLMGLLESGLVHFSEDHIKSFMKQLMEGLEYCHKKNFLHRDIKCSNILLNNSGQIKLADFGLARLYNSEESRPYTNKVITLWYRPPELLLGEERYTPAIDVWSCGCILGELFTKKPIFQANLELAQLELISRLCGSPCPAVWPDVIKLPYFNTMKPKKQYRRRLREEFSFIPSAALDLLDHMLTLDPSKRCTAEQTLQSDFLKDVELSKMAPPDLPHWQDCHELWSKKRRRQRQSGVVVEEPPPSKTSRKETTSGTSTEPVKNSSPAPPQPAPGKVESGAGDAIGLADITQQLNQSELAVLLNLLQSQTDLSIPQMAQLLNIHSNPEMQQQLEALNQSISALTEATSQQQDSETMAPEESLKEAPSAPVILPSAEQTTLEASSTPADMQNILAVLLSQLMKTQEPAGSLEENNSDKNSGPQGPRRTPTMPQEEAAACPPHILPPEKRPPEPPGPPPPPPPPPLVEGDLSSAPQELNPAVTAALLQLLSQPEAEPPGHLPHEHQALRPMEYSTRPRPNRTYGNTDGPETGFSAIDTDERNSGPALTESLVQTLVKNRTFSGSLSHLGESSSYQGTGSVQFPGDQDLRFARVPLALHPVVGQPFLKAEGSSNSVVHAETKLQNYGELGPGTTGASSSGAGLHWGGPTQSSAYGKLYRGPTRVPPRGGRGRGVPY
T2 sequence (O75909 whole entry partner): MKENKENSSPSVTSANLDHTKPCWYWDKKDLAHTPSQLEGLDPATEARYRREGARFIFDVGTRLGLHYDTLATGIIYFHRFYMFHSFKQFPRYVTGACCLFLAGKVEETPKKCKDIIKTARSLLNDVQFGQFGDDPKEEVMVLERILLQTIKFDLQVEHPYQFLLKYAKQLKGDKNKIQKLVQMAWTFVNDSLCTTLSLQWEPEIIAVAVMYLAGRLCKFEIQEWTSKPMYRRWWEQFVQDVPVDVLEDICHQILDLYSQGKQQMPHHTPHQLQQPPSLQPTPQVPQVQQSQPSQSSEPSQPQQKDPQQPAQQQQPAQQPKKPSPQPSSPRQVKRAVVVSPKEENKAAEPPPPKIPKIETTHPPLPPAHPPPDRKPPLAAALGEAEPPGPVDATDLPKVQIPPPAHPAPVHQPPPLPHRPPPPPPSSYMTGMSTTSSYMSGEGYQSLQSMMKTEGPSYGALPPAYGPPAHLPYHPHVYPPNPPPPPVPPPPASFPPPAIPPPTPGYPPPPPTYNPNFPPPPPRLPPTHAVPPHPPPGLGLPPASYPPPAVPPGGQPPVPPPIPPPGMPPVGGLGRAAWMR
Summary of the method: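 CAL-120 cells were treated with compound for 24 h at 37 °C, fixed with PFA and immunostained for CDK12. Nuclear CDK12 intensity was quantified by automated image analysis and normalized to DMSO and control. DC50 is the concentration giving 50% reduction of nuclear staining.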

SMILES	IC50 [1]	IC50 [2]	DC50 [3]	(IC50 CDK12 high ATP) to (Degradation DC50 CDK12) ratio [3]
CN(CCN1CCCC1)c1nc(NCc2nc3ccccc3[nH]2)n2ncc(Br)c2n1 [Example 239, N4-(1H-benzimidazol-2-ylmethyl)-8-bromo-N2-methyl-N2-(2-pyrrolidin-1-ylethyl)pyrazolo[1,5-a][1,3,5]triazine-2,4-diamine]	> 20 µM	0.436 µM	0.347 µM	>58
CN1CCN(c2nc(NCc3nc4ccccc4[nH]3)n3ncc(-c4ccncc4)c3n2)CC1 [Example 242, N-[(1H-benzimidazol-2-yl)methyl]-2-(4-methylpiperazin-1-yl)-8-(pyridin-4-yl)pyrazolo[1,5-a][1,3,5]triazin-4-amine]	> 20 µM	0.857 µM	0.107 µM	>188
Fc1ccc2[nH]c(CNc3nc(N4C[C@@H]5C[C@H]4CO5)nc4c(C5CC5)cnn34)nc2c1 [Example 185, 8-cyclopropyl-N-[(5-fluoro-1H-benzimidazol-2-yl)methyl]-2-[(1S,4S)-2-oxa-5-azabicyclo[2.2.1]heptan-5-yl]pyrazolo[1,5-a][1,3,5]triazin-4-amine]	> 20 µM	0.0186 µM	0.00249 µM	>7872
Cc1cc(-c2cnn3c(NCc4nc5ccccc5[nH]4)nc(N4CCN(C)CC4)nc23)ccn1 [Example 243, N-[(1H-benzimidazol-2-yl)methyl]-2-(4-methylpiperazin-1-yl)-8-(2-methylpyridin-4-yl)pyrazolo[1,5-a][1,3,5]triazin-4-amine]	> 20 µM	3.67 µM	0.267 µM	>75
CN1CC[C@H]2CN(c3nc(NCc4nc5ccccc5[nH]4)n4ncc(Br)c4n3)C[C@H]21 [Example 179, N-[(1H-benzimidazol-2-yl)methyl]-8-bromo-2-[(3aS,6aS)-1-methylhexahydropyrrolo[3,4-b]pyrrol-5 (1H)-yl]pyrazolo[1,5-a][1,3,5]triazin-4-amine]	> 20 µM	0.0167 µM	0.00459 µM	>4361
Cc1ccc2[nH]c(CNc3nc(N4C[C@@H](C)N[C@@H](C)C4)nc4c(Br)cnn34)nc2c1 [Example 209, 8-bromo-2-[(3R,5S)-3,5-dimethylpiperazin-1-yl]-N-[(5-methyl-1H-benzimidazol-2-yl)methyl]pyrazolo[1,5-a][1,3,5]triazin-4-amine]	> 20 µM	0.00128 µM	0.000471 µM	14455
CN(C)[C@@H]1CCN(c2nc(NCc3nc4ccccc4[nH]3)n3ncc(Br)c3n2)C1 [Example 178, N-[(1H-benzimidazol-2-yl)methyl]-8-bromo-2-[(3R)-3-(dimethylamino)pyrrolidin-1-yl]pyrazolo[1,5-a][1,3,5]triazin-4-amine]	> 20 µM	0.0968 µM	0.0255 µM	>783
Fc1ccc2[nH]c(CNc3nc(N4C[C@@H]5C[C@H]4CO5)nc4c(C5CC5)cnn34)nc2c1F [Example 173, 8-cyclopropyl-N-[(4,5-difluoro-1H-benzimidazol-2-yl)methyl]-2-[(1S,4S)-2-oxa-5-azabicyclo[2.2.1]heptan-5-yl]pyrazolo[1,5-a][1,3,5]triazin-4-amine]	> 20 µM	0.00814 µM	0.00174 µM	>11498

Stronger by IC50 [1], values ahead:

IC50 [1]	IC50 [2]	DC50 [3]	(IC50 CDK12 high ATP) to (Degradation DC50 CDK12) ratio [3]	SMILES
9.94 µM	0.0311 µM	0.0349 µM	214	COc1cccc2[nH]c(CNc3nc(N4C[C@H]5C[C@@H]4CO5)nc4c(C5CC5)cnn34)nc12 [Example 198, 8-cyclopropyl-N-[(4-methoxy-1H-benzimidazol-2-yl)methyl]-2-[(1R,4R)-2-oxa-5-azabicyclo[2.2.1]heptan-5-yl]pyrazolo[1,5-a][1,3,5]triazin-4-amine]
5.78 µM	0.0211 µM	0.0105 µM	>1900	CN1C[C@H]2C[C@@H]1CN2c1nc(NCc2nc3ccccc3[nH]2)n2ncc(Br)c2n1 [Example 218, N-[(1H-benzimidazol-2-yl)methyl]-8-bromo-2-[(1R,4R)-5-methyl-2,5-diazabicyclo[2.2.1]heptan-2-yl]pyrazolo[1,5-a][1,3,5]triazin-4-amine]
15.9 µM	0.0704 µM	0.0169 µM	420	O=C1CN(c2nc(NCc3nc4ccccc4[nH]3)n3ncc(Br)c3n2)CCN1 [Example 167, 4-(4-{[(1H-benzimidazol-2-yl)methyl]amino}-8-bromopyrazolo[1,5-a][1,3,5]triazin-2-yl)piperazin-2-one]
5.49 µM	0.0107 µM	0.00211 µM	497	COc1cccc2[nH]c(CNc3nc(N4CCOCC4)nc4c(C5CC5)cnn34)nc12 [Example 213, 8-cyclopropyl-N-[(4-methoxy-1H-benzimidazol-2-yl)methyl]-2-morpholino-pyrazolo[1,5-a][1,3,5]triazin-4-amine]
9.3 µM	0.00102 µM	0.00064 µM	13757	Cc1ccc2[nH]c(CNc3nc(N4C[C@@H]5CCCN[C@@H]5C4)nc4c(Br)cnn34)nc2c1 [Example 203, 8-bromo-N-[(5-methyl-1H-benzimidazol-2-yl)methyl]-2-[(4aS, 7aS)-octahydro-6H-pyrrolo[3,4-b]pyridin-6-yl]pyrazolo[1,5-a][1,3,5]triazin-4-amine]
4.17 µM	0.00308 µM	0.00056 µM	15180	Cc1ccc2[nH]c(CNc3nc(N4C[C@H]5C[C@@H]4CO5)nc4c(Br)cnn34)nc2c1 [Example 192, 8-bromo-N-[(5-methyl-1H-benzimidazol-2-yl)methyl]-2-[(1R,4R)-2-oxa-5-azabicyclo[2.2.1]heptan-5-yl]pyrazolo[1,5-a][1,3,5]triazin-4-amine]
2.72 µM	0.00927 µM	0.00175 µM	8	OC[C@@H]1CCCCN1c1nc(NCc2nc3c(F)c(F)ccc3[nH]2)n2ncc(C3CC3)c2n1 [Example 184, [(2S)-1-(8-cyclopropyl-4-{[(4,5-difluoro-1H-benzimidazol-2-yl)methyl]amino}pyrazolo[1,5-a][1,3,5]triazin-2-yl)piperidin-2-yl]methanol]
13.4 µM	0.00499 µM	0.0014 µM	6827	COc1cccc2[nH]c(CNc3nc(N4CCN(C)CC4)nc4c(C5CC5)cnn34)nc12 [Example 197, 8-cyclopropyl-N-[(4-methoxy-1H-benzimidazol-2-yl)methyl]-2-(4-methylpiperazin-1-yl)pyrazolo[1,5-a][1,3,5]triazin-4-amine]
4.94 µM	0.164 µM	0.128 µM	58	CN(CCO)c1nc(NCc2nc3ccccc3[nH]2)n2ncc(Br)c2n1 [Example 237, 2-[(4-{[(1H-benzimidazol-2-yl)methyl]amino}-8-bromopyrazolo[1,5-a][1,3,5]triazin-2-yl)(methyl)amino]ethan-1-ol]
15 µM	0.0176 µM	0.00126 µM	460	Fc1cccc2[nH]c(CNc3nc(N4CCOCC4)nc4c(C5CC5)cnn34)nc12 [Example 188, 8-cyclopropyl-N-[(4-fluoro-1H-benzimidazol-2-yl)methyl]-2-(morpholin-4-yl)pyrazolo[1,5-a][1,3,5]triazin-4-amine]
4.63 µM	0.0958 µM	0.117 µM	37	OC1(C(F)(F)F)CCN(c2nc(NCc3nc4ccccc4[nH]3)n3ncc(Br)c3n2)C1 (stereo not shown) [Example 200, 1-[4-(1H-benzimidazol-2-ylmethylamino)-8-bromo-pyrazolo[1,5-a][1,3,5]triazin-2-yl]-3-(trifluoromethyl)pyrrolidin-3-ol]
